Reference: ChEMBL document CHEMBL3751722, “Discovery of C-shaped aurone human neutrophil elastase inhibitors” (Medchemcomm, 2015)

Assays:
[1] = Selectivity index, ratio of cytotoxic EC50 for HEK293 cells to IC50 for human neutrophil elastase
[2] = system: HEK293; assay: Cytotoxicity against HEK293 cells; details: Homo sapiens
[3] = target: T1, Neutrophil elastase (Homo sapiens, UniProt P08246); assay: Inhibition of human neutrophil elastase pre-incubated for 30 mins before MeO-Suc-Ala-Ala-Pro-Val-AMC substrate addition by fluorometric assay
T1 sequence (P08246 whole entry): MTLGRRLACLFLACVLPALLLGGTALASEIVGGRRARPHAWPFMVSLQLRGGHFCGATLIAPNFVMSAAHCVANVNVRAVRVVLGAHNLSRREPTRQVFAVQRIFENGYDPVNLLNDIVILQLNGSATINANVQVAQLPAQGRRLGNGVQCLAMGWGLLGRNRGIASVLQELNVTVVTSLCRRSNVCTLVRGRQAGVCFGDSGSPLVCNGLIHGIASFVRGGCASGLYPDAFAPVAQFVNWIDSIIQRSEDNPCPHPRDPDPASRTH

IC50 [3] [µM]	Structure (SMILES)	Selectivity Index [1]	EC50 [2] [µM]
2.9	CN(C)c1ccc(/C=C2\Oc3ccccc3C2=O)cc1	>20	> 100
5.1	CN(C)c1ccc(/C=C2\Oc3cc(O)ccc3C2=O)cc1	>20	> 100
–	O=C1/C(=C/c2ccc(Br)cc2)Oc2ccccc21	–	> 100
> 10	O=C1/C(=C/c2cccc(Br)c2)Oc2ccccc21	>20	> 100
–	O=C1/C(=C/c2ccccc2Br)Oc2ccccc21	–	> 100
–	O=C1/C(=C/c2ccc(-c3ccccc3)cc2)Oc2ccccc21	–	> 100
–	O=C1/C(=C/c2ccc(-c3ccc(F)cc3)cc2)Oc2ccccc21	–	> 100
–	O=C1/C(=C/c2ccc(-c3ccc(Cl)cc3)cc2)Oc2ccccc21	–	> 100
–	O=Cc1ccc(-c2ccc(/C=C3\Oc4ccccc4C3=O)cc2)cc1	–	> 100
–	O=C1/C(=C/c2ccc(Cc3ccccc3)cc2)Oc2ccccc21	–	> 100
–	O=C1/C(=C/c2ccc(-c3cnc4ccccc4c3)cc2)Oc2ccccc21	–	> 100
–	Nc1ccc(-c2ccc(/C=C3\Oc4ccccc4C3=O)cc2)cn1	–	> 100
–	O=C1/C(=C/c2ccc(Nc3ccccc3)cc2)Oc2ccccc21	–	> 100
–	O=C1/C(=C/c2ccc(NCc3ccccc3)cc2)Oc2ccccc21	–	> 100
> 10	Cc1ccc(Oc2ccc(/C=C3\Oc4ccccc4C3=O)cc2)cc1	>20	> 100
–	O=C1/C(=C/c2ccc(Oc3ccc(Cl)cc3)cc2)Oc2ccccc21	–	> 100
–	O=C1/C(=C/c2cccc(-c3ccccc3)c2)Oc2ccccc21	–	> 100
–	O=C1/C(=C/c2cccc(-c3ccc(Cl)cc3)c2)Oc2ccccc21	–	> 100
–	O=Cc1ccc(-c2cccc(/C=C3\Oc4ccccc4C3=O)c2)cc1	–	> 100
–	O=C1/C(=C/c2cccc(Cc3ccccc3)c2)Oc2ccccc21	–	> 100
–	COc1cccc2c1O/C(=C\c1ccccc1)C2=O	–	> 100
–	Cc1ccc(Oc2ccc(/C=C3\Oc4cc(O)ccc4C3=O)cc2)cc1	–	> 100
–	O=C1/C(=C/c2ccc(Oc3ccc(Cl)cc3)cc2)Oc2cc(O)ccc21	–	> 100
–	O=C1/C(=C/c2cccc(-c3cnc4ccccc4c3)c2)Oc2ccccc21	–	> 100
–	O=C1/C(=C/c2ccccc2)Oc2cc(O)ccc21	–	> 100
